Key:
[1] = Selectivity ratio of IC50 for recombinant human GABA receptor to IC50 for housefly GABA receptor
GABA receptor subunit = target: T1, GABA receptor subunit (Musca domestica, UniProt Q75NA5); assay: Inhibition of Musca domestica (house fly) GABA receptor
T1 sequence (Q75NA5 whole entry): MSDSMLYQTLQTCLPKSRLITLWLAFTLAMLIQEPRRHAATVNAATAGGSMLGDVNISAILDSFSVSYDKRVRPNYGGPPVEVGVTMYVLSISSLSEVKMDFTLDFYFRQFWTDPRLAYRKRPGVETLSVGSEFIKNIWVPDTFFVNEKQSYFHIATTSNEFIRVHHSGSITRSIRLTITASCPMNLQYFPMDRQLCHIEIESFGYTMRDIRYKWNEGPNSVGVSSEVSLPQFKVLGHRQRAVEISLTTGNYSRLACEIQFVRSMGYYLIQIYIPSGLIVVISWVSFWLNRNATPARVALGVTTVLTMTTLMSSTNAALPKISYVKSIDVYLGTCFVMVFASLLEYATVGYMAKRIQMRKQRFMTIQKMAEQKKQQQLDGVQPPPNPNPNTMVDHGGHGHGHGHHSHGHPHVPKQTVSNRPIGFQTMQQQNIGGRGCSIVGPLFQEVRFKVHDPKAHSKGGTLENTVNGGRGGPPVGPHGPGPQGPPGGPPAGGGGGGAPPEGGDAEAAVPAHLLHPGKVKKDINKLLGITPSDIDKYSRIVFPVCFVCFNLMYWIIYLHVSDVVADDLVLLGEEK

[2] = target: T2, GABA A receptor alpha-1/beta-1/gamma-2 (Homo sapiens, UniProt P14867+P18505+P18507); assay: Displacement of [3H]EBOB from recombinant Homo sapiens (human) GABA alpha1beta1gamma2 receptor; format: protein-complex assay
T2 sequence (P14867 whole entry): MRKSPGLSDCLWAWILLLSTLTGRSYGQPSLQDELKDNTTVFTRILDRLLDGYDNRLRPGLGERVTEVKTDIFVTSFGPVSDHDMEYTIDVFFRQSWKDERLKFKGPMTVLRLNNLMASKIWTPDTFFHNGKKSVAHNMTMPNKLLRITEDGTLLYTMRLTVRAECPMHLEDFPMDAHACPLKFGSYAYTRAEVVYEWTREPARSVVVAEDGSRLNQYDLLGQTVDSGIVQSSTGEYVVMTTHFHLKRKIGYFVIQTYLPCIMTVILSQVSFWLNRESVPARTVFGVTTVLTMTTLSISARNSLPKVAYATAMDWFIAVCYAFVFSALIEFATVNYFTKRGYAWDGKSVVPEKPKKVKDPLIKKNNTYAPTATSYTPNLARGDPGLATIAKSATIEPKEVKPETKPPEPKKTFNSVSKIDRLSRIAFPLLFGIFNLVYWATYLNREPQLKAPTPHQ
T2 sequence (P18507 whole entry): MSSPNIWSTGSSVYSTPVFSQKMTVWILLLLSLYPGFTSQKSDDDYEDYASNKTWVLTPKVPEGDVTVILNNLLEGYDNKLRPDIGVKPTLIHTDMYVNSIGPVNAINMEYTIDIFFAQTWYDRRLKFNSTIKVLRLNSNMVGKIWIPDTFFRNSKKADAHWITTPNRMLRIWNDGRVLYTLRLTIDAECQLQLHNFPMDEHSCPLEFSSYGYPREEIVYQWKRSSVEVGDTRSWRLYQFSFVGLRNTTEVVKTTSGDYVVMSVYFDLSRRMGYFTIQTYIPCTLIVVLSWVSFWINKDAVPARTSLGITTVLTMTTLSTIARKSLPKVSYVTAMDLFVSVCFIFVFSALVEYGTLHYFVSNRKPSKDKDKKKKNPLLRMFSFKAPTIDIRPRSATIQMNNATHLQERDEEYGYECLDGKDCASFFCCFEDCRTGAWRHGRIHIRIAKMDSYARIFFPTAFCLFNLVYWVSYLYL
T2 sequence (P18505 whole entry): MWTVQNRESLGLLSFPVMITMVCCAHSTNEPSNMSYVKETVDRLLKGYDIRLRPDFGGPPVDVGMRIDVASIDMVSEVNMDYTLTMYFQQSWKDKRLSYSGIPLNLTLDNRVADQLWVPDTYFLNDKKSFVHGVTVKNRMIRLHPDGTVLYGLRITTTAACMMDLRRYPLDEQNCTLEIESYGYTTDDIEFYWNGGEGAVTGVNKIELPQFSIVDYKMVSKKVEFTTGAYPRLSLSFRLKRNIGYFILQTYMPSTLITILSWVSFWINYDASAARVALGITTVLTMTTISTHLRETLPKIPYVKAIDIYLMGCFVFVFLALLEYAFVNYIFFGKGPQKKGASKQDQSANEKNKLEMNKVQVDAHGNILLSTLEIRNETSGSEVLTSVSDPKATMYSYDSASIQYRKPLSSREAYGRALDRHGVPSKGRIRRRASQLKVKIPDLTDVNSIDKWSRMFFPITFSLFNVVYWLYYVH

[3] = target: T3, Gamma-aminobutyric acid receptor subunit alpha-1/ beta-1 (Homo sapiens, UniProt P14867+P18505); assay: Displacement of [3H]EBOB from recombinant Homo sapiens (human) GABA alpha1beta1 receptor; format: protein-complex assay
T3 sequence (P14867 whole entry): T2 sequence (P14867 whole entry)
T3 sequence (P18505 whole entry): T2 sequence (P18505 whole entry)

[4] = target: T4, Gamma-aminobutyric acid receptor subunit beta-3 (Homo sapiens, UniProt P28472); assay: Displacement of [3H]EBOB from recombinant Homo sapiens (human) GABA beta3 receptor
T4 sequence (P28472 whole entry): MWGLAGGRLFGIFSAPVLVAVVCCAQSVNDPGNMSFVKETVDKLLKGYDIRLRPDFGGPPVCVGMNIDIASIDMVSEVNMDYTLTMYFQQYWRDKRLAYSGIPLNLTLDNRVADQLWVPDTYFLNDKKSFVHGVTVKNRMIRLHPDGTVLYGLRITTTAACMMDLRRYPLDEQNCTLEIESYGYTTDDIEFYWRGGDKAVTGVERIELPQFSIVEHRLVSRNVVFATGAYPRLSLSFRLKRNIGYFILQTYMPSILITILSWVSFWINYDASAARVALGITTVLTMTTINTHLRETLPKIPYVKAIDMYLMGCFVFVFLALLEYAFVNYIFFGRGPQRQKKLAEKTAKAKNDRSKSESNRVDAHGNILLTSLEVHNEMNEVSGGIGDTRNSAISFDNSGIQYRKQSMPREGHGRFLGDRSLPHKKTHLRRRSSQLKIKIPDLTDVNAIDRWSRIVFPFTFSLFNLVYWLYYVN

[5] = target: T5, GABA-A receptor alpha-1/beta-3 (Homo sapiens, UniProt P14867+P28472); assay: Displacement of [3H]EBOB from recombinant Homo sapiens (human) GABA alpha1beta3 receptor
T5 sequence (P14867 whole entry): T2 sequence (P14867 whole entry)
T5 sequence (P28472 whole entry): T4 sequence (P28472 whole entry)

[6] = target: GABA-A receptor; alpha-6/beta-3/gamma-2 (Homo sapiens, UniProt P18507+P28472+Q16445); assay: Displacement of [3H]EBOB from recombinant Homo sapiens (human) GABA alpha6beta3gamma2 receptor; format: protein-complex assay
Sequence of GABA-A receptor; alpha-6/beta-3/gamma-2 (Q16445 whole entry, one chain of several): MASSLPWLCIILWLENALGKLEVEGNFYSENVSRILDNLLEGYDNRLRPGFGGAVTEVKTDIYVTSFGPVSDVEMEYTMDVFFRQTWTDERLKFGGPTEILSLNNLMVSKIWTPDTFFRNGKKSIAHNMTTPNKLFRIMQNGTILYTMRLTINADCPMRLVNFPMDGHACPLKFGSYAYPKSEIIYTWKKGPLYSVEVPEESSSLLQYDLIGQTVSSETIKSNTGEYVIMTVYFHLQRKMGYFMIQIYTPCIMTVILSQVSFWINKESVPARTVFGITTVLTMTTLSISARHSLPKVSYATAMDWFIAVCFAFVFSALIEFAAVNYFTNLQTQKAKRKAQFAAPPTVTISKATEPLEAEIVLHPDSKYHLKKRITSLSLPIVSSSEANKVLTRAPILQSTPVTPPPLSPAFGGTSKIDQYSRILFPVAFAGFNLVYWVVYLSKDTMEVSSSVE

[7] = Inhibition of recombinant Homo sapiens (human) GABA receptor
[8] = Toxicity in ip dosed Mus musculus (mouse); format: organism-based; settings: in vivo
[9] = target: Gamma-aminobutyric acid receptor subunit alpha-6/beta-3 (Homo sapiens, UniProt P28472+Q16445); assay: Displacement of [3H]EBOB from recombinant Homo sapiens (human) GABA alpha6beta3 receptor; format: protein-complex assay
Sequence of Gamma-aminobutyric acid receptor subunit alpha-6/beta-3 (Q16445 whole entry, one chain of several): as above

Musca domestica = assay: Insecticidal activity against topically-treated Musca domestica (house fly); format: ADME, organism-based; settings: topical
[10] = target: T6, GABA-A receptor; alpha-1/beta-3/gamma-2 (Homo sapiens, UniProt P14867+P18507+P28472); assay: Displacement of [3H]EBOB from recombinant Homo sapiens (human) GABA alpha1beta3gamma2 receptor; format: protein-complex assay
T6 sequence (P14867 whole entry): T2 sequence (P14867 whole entry)
T6 sequence (P18507 whole entry): T2 sequence (P18507 whole entry)
T6 sequence (P28472 whole entry): T4 sequence (P28472 whole entry)

[11] = target: Gamma-aminobutyric acid receptor subunit rho-1 (Homo sapiens, UniProt P24046); assay: Displacement of [3H]EBOB from recombinant Homo sapiens (human) GABA rho1 receptor
Sequence of Gamma-aminobutyric acid receptor subunit rho-1 (P24046 whole entry): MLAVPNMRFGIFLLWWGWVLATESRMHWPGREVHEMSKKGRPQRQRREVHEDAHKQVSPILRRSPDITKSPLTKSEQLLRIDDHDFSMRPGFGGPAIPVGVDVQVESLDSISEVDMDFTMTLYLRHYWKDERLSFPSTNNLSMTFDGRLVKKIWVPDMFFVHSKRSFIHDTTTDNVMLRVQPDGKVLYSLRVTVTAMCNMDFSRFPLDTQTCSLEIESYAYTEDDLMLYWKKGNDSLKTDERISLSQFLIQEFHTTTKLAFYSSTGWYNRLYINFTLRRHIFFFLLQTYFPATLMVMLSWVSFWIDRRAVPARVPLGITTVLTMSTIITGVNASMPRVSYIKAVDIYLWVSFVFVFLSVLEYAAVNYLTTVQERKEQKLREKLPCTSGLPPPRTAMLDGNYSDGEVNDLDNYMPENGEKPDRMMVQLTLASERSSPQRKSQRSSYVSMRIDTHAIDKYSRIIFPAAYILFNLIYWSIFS

SMILES | Ratio IC50 [1] | IC50 (GABA receptor subunit) | IC50 [2] | IC50 [3] | IC50 [4] | IC50 [5] | IC50 [6] | IC50 [7] | LD50 [8] | IC50 [9] | LD50 (Musca domestica) | IC50 [10] | IC50 [11]
C#Cc1ccc(C23OCC(CCC)(CO2)CO3)cc1 | 5 | – | – | – | – | – | – | – | – | – | – | – | –
O=S1OC[C@@H]2[C@H](CO1)[C@@]1(Cl)C(Cl)=C(Cl)[C@]2(Cl)C1(Cl)Cl (stereo partly drawn) [ALPHA-ENDOSULFAN] | 0.73 | 10 nM | 40 nM | 117 nM | 0.47 nM | 8.3 nM | 4.6 nM | 7.3 nM | 10 mg/kg | 4 nM | 5.5 mg/kg | 16 nM | 800 nM
N#Cc1nn(-c2c(Cl)cc(C(F)(F)F)cc2Cl)c(N)c1[S+]([O-])C(F)(F)F (stereo not given) [FIPRONIL] | 1090 | 2.3 nM | 2800 nM | 7700 nM | 2.4 nM | 28 nM | 17 nM | 2500 nM | 32 mg/kg | 3.1 nM | 0.25 mg/kg | 33 nM | > 10000 nM
Cl[C@H]1[C@H](Cl)[C@@H](Cl)[C@@H](Cl)[C@H](Cl)[C@H]1Cl [LINDANE] | 28 | 11 nM | 67 nM | 112 nM | 0.9 nM | 12 nM | 4.9 nM | 306 nM | 40 mg/kg | 1.3 nM | 5.5 mg/kg | 21 nM | 91 nM

Reference: ChEMBL document CHEMBL3045560, “Insecticide interactions with -aminobutyric acid and nicotinic receptors: predictive aspects of structural models” (J Pestic Sci, 2008)
